Experimental data: patent US20190055231A1, “BACE1 INHIBITORS” (Hoffmann-La Roche Inc., priority 2016, published 2019)

Tests used:
[1] = target: T1, BACE1 (Homo sapiens, UniProt P56817); test: BACE1 cell-free assay (BACE1 enzyme assay); type: biochemical
From the text: BACE1 Cell-Free Assay (BACE1 Enzyme Assay)
(§1) The determination of BACE1 activity can be either measured by using an enzymatic cell-free fluorescence assay (BACE1 cell free, table 2) or by a whole cell assay using HEK293 APP cells (Cellular Aβ-lowering, table 2). Both assays are suitable to determine BACE1 inhibition.

[2] = target: T1, BACE1; test: Cellular Aβ-lowering assay (Abeta 40 AlphaLISA, HEK293 APP cells); type: cell-based; set-up: endogenous in cells; host or cells: HEK293 APP cells
Protocol: Cellular Aβ-Lowering Assay:
The Abeta 40 AlphaLISA Assay can be used. The HEK293 APP cells were seeded in 96 well Microtiter plates in cell culture medium (Iscove's, plus 10% (v/v) fetal bovine serum, penicillin/streptomycin) to about 80% confluency and the compounds were added at a 3× concentration in ⅓ volume of culture medium (final DMSO concentration was kept at 1% v/v). After 18-20 hrs incubation at 37° C. and 5% CO2 in a humidified incubator, the culture supernatants were harvested for the determination of AP 40 concentrations using Perkin-Elmer Human Amyloid beta 1-40 (high specificity) Kit (Cat#AL275C).
In a Perkin-Elmer White Optiplate-384 (Cat#6007290), 2 ul culture supernatants were combined with 2 μl of a 10× AlphaLISA Anti-hAP Acceptor beads+Biotinylated Antibody Anti-Aβ 1-40 Mix (50 μg/mL/5 nM). After 1 hour room temperature incubation, 16 μl of a 1.25× preparation of Streptavidin (SA) Donor beads (25 μg/mL) were added and incubated for 30 minutes in the Dark. Light Emission at 615 nm was then recorded using EnVision-Alpha Reader. Levels of AP 40 in the culture supernatants were calculated as percentage of maximum signal (cells treated with 1% DMSO without inhibitor). The IC50 value were calculated using the Excel XLfit software.
Cellular Aβ-Lowering Assay (Cell-Based Assay)
as §1

[3] = target: Human P-gp (Homo sapiens, UniProt P08183); test: P-gp transport assay (human); type: in vitro ADME; conditions: efflux ratio
Sequence of Human P-gp (P08183 whole entry): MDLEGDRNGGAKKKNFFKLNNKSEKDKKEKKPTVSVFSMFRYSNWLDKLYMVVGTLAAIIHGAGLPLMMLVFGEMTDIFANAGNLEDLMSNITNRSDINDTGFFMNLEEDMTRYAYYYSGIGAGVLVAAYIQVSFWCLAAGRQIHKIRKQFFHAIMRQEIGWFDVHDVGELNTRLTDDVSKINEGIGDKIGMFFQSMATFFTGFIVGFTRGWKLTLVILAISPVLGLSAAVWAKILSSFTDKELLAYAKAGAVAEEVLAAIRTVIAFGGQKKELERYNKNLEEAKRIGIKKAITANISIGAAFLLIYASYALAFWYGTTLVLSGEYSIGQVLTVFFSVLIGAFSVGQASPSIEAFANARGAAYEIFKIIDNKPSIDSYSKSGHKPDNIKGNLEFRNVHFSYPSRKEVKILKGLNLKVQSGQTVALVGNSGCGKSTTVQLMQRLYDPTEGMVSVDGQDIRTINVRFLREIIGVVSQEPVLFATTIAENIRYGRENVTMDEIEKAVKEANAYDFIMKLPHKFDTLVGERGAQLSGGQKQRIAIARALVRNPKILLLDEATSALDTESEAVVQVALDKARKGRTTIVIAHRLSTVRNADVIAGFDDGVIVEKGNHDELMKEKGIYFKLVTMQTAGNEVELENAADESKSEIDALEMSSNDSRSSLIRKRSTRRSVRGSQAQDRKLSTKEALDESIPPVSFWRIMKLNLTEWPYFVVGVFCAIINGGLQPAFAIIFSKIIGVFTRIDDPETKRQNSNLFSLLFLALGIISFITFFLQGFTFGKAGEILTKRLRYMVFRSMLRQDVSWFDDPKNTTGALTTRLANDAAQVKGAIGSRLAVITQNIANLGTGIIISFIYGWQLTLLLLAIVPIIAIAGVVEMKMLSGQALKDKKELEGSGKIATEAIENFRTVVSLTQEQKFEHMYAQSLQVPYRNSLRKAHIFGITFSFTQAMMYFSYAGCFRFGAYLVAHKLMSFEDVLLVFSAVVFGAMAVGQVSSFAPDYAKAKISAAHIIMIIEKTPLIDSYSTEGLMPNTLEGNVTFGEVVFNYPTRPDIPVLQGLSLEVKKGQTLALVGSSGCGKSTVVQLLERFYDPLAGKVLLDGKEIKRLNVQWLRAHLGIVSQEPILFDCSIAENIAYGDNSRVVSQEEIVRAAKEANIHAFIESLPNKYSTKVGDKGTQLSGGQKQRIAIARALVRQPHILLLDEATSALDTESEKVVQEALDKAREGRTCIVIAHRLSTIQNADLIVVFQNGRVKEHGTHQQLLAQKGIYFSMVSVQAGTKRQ
From the text: (§2) P-Gp Transport Assay (Human and Mouse) (P-Gp Assay)
(§3) In the assay of the P-gp efflux ratio ER as described hereinabove, a compound with ER<2.5 is regarded most suitable. In addition, compounds with low hERG channel binding are suitable as well.

[4] = target: T2, BACE2 (Homo sapiens, UniProt Q9Y5Z0); test: BACE2 cell-free assay (BACE2 enzyme assay); type: biochemical; conditions: BACE2 IC50 divided by BACE1 IC50, cell free assays
T2 sequence (Q9Y5Z0 63-518): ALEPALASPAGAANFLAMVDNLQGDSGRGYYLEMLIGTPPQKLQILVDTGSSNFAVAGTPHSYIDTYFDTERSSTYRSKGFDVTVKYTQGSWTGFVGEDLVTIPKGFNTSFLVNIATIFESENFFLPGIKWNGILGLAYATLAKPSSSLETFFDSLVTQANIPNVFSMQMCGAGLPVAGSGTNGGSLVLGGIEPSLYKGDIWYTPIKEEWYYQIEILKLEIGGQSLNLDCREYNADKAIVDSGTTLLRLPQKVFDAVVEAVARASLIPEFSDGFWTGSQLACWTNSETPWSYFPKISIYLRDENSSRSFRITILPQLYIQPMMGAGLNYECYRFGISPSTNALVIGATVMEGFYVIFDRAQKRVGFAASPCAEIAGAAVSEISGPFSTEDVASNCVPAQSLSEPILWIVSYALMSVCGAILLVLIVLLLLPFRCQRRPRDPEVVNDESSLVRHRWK
From the text: BACE2 Cell-Free Assay (BACE2 Enzyme Assay)
Selectivity versus related targets is important in terms of safety of a drug candidate. BACE2 is a close homolog of BACE1. BACE2 was recently reported to play a crucial role in pigmentation of the skin by processing pigment cell-specific melanocyte protein (PMEL). (Proc Natl Acad Sci USA. 2013 Jun. 25; 110(26):10658-63. doi: 10.1073/pnas.1220748110. Epub 2013 Jun. 10). It is believed that PMEL contributes in melanogenesis. Therefore, selectivity versus BACE2 is advantageous when it comes to pigmentation of the skin. The selectivity ratio of BACE2/BACE1 IC50 was calculated by dividing the BACE2 IC50 value by the BACE1 IC50 value determined each in the cell free assay. […] This implies a 3-fold improvement of example 1 compared to comparators 4 and 5.

[5] = system: Aβ40 in brain of wild-type mice; test: Mouse acute in vivo model (inhibition of Aβ40 in brain of wild-type mice); conditions: 4 h post dose; for Brain Aβ-lowering 3 mg/kg: single p.o. dose 3 mg/kg; for Brain Aβ-lowering 10 mg/kg: single p.o. dose 10 mg/kg; for Brain Aβ-lowering 30 mg/kg: single p.o. dose 30 mg/kg
Protocol: Mouse Acute In Vivo Model (Inhibition of Aβ40 in Brain of Wild-Type Mice)
Single Dose Efficacy in Mice
The mouse single dose efficacy was measured in brain homogenate from C57Bl/6J wildtype mice after DEA extraction as described in H. Hilpert et al., J. Med. Chem. 2013, 56, 3980-3995 (dx.doi.org/10.1021/jm400225m).
Aβ 40 concentration was determined after solid phase extraction as described above and following a modified protocol from Perkin-Elmer with a commercially available antibody against the N-terminal part of rat Aβ (252Q6, Invitrogen cat. No. AMB0062) and an in-house C-terminal specific anti-Aβ40 antibody (BAP-24, Brockhaus M. et al., J. Neuroreport, 1998, 9:1481-1486) bound to acceptor beads (PerkinElmer, Cat. 6772002). 20 μl analyte per well (reconstituted extracts or standard) were loaded to a White Optiplate-96 (Perkin-Elmer, Cat#6005290). Then, a mixture of biotinylated BAP24 antibody (1:2000 diluted at approximately 1 nM final concentration) and antibody 252Q6 bound to AlphaLISA acceptor beads (Perkin-Elmer cat. No. 6772002 (1:100 diluted, 10 ug/mL final concentration) in 1× AlphaLISA buffer (Perkin-Elmer, AL000F) was added. After 1 hour room temperature incubation in the dark, 20 uL of a streptavidin coated donor beads dilution (40 μg/mL) were added and incubated for 30 minutes in the dark. Light emission at 615 nm was recorded using an EnVision AlphaScreen Reader (Perkin-Elmer). Levels of Aβ40 were calculated as percentage of the baseline samples from non-treated animals.
Aβ40 lowering was determined after oral administration in wild-type mice (C57Bl/6J mice, n=3-4) 4 h post dosing. Wild-type mice were used as they have a normal physiological level of APP expression and are thus expected to provide a better physiological model for Aβ-peptide production than APP-transgenic organisms. In vivo efficacy is a key factor for appropriate drug candidates, being more relevant than in vitro activities.

[6] = target: Mouse P-gp (Mus musculus, UniProt P21447); test: P-gp transport assay (mouse); type: in vitro ADME; conditions: efflux ratio
Sequence of Mouse P-gp (P21447 whole entry): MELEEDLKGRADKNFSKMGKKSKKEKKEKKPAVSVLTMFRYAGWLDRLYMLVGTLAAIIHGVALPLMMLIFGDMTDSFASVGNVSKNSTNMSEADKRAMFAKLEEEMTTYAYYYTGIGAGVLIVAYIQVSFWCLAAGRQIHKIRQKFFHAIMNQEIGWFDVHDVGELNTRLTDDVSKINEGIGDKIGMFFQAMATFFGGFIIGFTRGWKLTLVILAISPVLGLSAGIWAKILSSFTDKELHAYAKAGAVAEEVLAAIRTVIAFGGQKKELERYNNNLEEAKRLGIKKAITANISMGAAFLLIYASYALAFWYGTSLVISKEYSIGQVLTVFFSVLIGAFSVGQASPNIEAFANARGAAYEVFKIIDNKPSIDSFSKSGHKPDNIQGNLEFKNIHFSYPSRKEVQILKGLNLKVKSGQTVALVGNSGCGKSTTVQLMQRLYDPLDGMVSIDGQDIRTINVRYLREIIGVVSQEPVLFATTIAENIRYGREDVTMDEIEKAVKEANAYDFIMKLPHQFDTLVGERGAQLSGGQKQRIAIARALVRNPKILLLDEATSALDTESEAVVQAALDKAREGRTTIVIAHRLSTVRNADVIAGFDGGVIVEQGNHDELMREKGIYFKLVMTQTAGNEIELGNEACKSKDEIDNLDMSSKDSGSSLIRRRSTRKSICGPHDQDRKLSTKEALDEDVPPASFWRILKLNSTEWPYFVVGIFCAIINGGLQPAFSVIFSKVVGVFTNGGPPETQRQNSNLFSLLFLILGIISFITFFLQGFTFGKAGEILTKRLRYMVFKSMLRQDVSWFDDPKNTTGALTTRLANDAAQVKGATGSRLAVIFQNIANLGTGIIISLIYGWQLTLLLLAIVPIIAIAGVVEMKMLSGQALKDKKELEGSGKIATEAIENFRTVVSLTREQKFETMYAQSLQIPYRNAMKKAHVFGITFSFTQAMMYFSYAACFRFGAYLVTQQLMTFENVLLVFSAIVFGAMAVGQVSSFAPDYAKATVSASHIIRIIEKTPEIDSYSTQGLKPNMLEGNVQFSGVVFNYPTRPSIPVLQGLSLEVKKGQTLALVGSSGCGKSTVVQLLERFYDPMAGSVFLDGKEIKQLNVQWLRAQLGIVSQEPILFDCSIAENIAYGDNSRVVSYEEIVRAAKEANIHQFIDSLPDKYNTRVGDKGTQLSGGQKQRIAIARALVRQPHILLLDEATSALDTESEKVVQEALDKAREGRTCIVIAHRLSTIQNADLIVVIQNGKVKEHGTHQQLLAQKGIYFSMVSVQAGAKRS
From the text: as §2, §3

[7] = target: hERG channel (Homo sapiens, UniProt Q12809); test: hERG IC20 assay; type: cell-based; conditions: for IC20: human, hERG IC20 assay
Sequence of hERG channel (Q12809 whole entry): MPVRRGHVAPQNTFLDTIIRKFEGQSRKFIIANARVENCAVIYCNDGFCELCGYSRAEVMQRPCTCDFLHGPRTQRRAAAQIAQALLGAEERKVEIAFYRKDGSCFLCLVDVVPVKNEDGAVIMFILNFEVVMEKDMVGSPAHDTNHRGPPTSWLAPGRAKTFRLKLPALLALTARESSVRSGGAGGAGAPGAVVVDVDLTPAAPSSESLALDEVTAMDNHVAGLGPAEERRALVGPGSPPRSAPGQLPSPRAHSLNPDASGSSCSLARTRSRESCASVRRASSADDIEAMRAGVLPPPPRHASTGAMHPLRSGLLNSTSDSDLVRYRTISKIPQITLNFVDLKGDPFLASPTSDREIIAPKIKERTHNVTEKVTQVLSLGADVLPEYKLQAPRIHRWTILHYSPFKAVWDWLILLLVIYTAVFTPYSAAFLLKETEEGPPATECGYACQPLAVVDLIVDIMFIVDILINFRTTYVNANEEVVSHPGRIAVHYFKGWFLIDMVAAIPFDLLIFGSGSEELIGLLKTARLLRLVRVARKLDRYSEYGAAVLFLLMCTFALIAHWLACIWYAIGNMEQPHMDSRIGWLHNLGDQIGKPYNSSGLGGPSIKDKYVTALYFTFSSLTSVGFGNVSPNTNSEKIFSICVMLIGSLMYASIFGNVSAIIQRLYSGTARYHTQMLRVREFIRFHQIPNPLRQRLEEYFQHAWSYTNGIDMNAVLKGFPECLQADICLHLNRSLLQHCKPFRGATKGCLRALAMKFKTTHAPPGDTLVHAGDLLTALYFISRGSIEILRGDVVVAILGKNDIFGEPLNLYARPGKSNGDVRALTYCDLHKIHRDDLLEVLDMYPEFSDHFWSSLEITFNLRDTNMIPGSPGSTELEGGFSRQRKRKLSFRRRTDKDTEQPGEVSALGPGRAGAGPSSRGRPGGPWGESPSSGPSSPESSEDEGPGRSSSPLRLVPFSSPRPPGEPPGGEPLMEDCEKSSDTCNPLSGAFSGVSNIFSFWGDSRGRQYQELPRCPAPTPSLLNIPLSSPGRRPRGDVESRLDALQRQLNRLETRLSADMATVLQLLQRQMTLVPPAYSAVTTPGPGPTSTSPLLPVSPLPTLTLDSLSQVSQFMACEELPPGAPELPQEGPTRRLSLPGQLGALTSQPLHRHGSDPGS
From the text: The methods to determine the hERG IC20 values was described in Industrializing electrophysiology: HT automated patch clamp on SyncroPatch® 96 using instant frozen cells. Polonchuk L., Methods Mol Biol. 2014; 1183:81-92. (doi: 10.1007/978-1-4939-1096-0_5.) PMID:25023303
QT prolongation is a cardiovascular risk caused by drug candidates which inhibit the hERG channel (human ether a go-go). A sufficient safety margin between the hERG IC20 value and the free plasma concentration necessary to achieve the envisaged thereapeutic effects is desired (ICH. The nonclinical evaluation of the potential for delayed ventricular repolarization (QT interval prolongation) by human pharmaceuticals (S7B), issued as CPMP/ICH/423/02, adopted by CHMP in May 2005 (http://www.ich.org/cache/compo/276-254-1.html; Redfern W S, Carlsson L, Davis A S, Lynch W G, MacKenzie I, Palethorpe S, Siegl P K, Strang I, Sullivan A T, Wallis R, Camm A J, Hammond T G. Relationships between preclinical cardiac electrophysiology, clinical QT interval prolongation and torsade de pointes for a broad range of drugs: evidence for a provisional safety margin in drug development. Cardiovasc Res. 2003 Apr. 1; 58(1):32-45.)). Reducing the activity against efflux transporters expressed at the blood-brain-barrier such as P-glycoprotein P-gp, might result in reduction of the free plasma concentration by optimizing brain penetration.

[8] = HEK293 APP cells, Aβ40 in supernatant, read-out: BACE1 cell act. Aβ40 IC50

T1 sequence (P56817 46-501): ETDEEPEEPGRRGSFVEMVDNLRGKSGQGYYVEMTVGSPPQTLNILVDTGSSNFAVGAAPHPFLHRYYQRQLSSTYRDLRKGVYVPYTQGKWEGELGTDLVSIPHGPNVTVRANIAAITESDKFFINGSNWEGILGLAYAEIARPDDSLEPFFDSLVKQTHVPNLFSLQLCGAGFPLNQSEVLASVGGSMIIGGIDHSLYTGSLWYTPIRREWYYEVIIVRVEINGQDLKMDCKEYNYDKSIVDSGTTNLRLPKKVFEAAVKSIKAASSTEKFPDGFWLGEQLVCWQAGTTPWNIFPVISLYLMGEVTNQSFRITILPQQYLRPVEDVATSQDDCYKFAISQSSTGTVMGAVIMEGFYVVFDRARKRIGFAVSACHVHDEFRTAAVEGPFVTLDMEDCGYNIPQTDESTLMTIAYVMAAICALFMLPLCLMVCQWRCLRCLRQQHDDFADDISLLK

SMILES | IC50 [1] [nM] | IC50 [2, 8] [nM] | Human P-gp ER [3] | BACE2/BACE1 IC50 ratio [4] | Mouse P-gp ER [6] | IC50 ([2]; read-out: cellular potency) [nM] | Brain Aβ-lowering 3 mg/kg [5] [%] | Brain Aβ-lowering 10 mg/kg [5] [%] | Brain Aβ-lowering 30 mg/kg [5] [%] | IC20 ([7]; instant frozen cells (hERG channel, automated patch clamp)) [nM] | IC20 [7] [nM] | higher affinity to hERG than example 1 [7] [fold] | Brain Aβ-lowering 3 mg/kg ([5]; listed as comparator 5) [%]
C[C@]1(c2nc(NC(=O)c3ccc(C#N)cn3)ccc2F)N=C(N)O[C@H](C(F)(F)F)C1(F)F [Comparator 1, N-(6-((4R,6S)-2-Amino-5,5-difluoro-4-methyl-6-(trifluoromethyl)-5,6-dihydro-4H-1,3-oxazin-4-yl)-5-fluoropyridin-2-yl)-5-cyanopicolinamide] | 29 | 324 | 1.4 | 3.0 | 1.3 | – | 2 | 4 | 66 | – | – | – | –
Cc1cc(C#N)cnc1C(=O)Nc1ccc(F)c([C@@]2(C)N=C(N)O[C@H](C(F)(F)F)C2(F)F)n1 [Comparator 2, N-(6-((4R,6S)-2-Amino-5,5-difluoro-4-methyl-6-(trifluoromethyl)-5,6-dihydro-4H-1,3-oxazin-4-yl)-5-fluoropyridin-2-yl)-5-cyano-3-methylpicolinamide] | 19 | 203 | – | 3.0 | 1.4 | – | 10 | 42 | – | – | – | – | –
C[C@]1(c2nc(NC(=O)c3ccc(C#N)cn3)ccc2F)N=C(N)O[C@@H](C(F)(F)F)C1(F)F [Comparator 3, N-(6-((4R,6R)-2-Amino-5,5-difluoro-4-methyl-6-(trifluoromethyl)-5,6-dihydro-4H-1,3-oxazin-4-yl)-5-fluoropyridin-2-yl)-5-cyanopicolinamide] | – | 37400 | – | – | – | > 35000 | – | – | – | – | – | – | –
C[C@]1(c2nc(NC(=O)c3ccc(C#N)cn3)ccc2F)N=C(N)O[C@@H](C(F)(F)F)[C@@H]1F [Comparator 7] | – | – | – | – | – | – | – | – | 70 | – | – | – | –

Second part, led by results:

IC50 [1] [nM] | IC50 [2, 8] [nM] | Human P-gp ER [3] | BACE2/BACE1 IC50 ratio [4] | Mouse P-gp ER [6] | IC50 ([2]; read-out: cellular potency) [nM] | SMILES | Brain Aβ-lowering 3 mg/kg [5] [%] | Brain Aβ-lowering 10 mg/kg [5] [%] | Brain Aβ-lowering 30 mg/kg [5] [%] | IC20 ([7]; instant frozen cells (hERG channel, automated patch clamp)) [nM] | IC20 [7] [nM] | higher affinity to hERG than example 1 [7] [fold] | Brain Aβ-lowering 3 mg/kg ([5]; listed as comparator 5) [%]
33 | 4 | – | – | – | – | C[C@@]1(c2nc(NC(=O)c3ccc(C#N)cn3)ccc2F)C[C@@H](C(F)(F)F)OC(N)=N1 [Comparator 4] | – | – | – | 40 | 40 | – | –
– | – | 3.3 | – | 8.1 | – | Cc1cc(C#N)cnc1C(=O)Nc1ccc(F)c([C@]2(C)C[C@@H](C(F)(F)F)OC(N)=N2)n1 [Comparator 5] | 7 | 70 | – | – | 440 | 5.3 | 7
